The text below walks through data of US20090149455A1, “Use of Triazolopyrimidines for Controlling Plant Diseases on Legumes” (Bayer CropScience AG, priority 2005, published 2009).

A short description of the series: log p. It counts as physicochemical.

SMILES strings stand for the structures.

Regarding `CC(Nc1c(-c2c(F)cc(F)cc2F)c(Cl)nc2ncnn12)C(F)(F)F` (stereo not drawn) [Example 1], the log p amounted to 2.87. `CC(Nc1c(-c2c(F)cc(F)cc2F)c(Cl)nc2ncnn12)C(C)(C)C` (stereo not drawn) [Example 2] returned a log p of 3.54. `CC(C)C(C)Nc1c(-c2c(F)cc(F)cc2F)c(Cl)nc2ncnn12` (stereo not drawn) [Example 3]: the log p is 3.2. `CCC(C)Nc1c(-c2ccccc2F)c(Cl)nc2ncnn12` (stereo not drawn) [Example 4] displayed a log p of 2.73. Next, `CCC(C)Nc1c(-c2c(F)cccc2F)c(Cl)nc2ncnn12` (stereo not drawn) [Example 5]: 2.71; `CCC(C)Nc1c(-c2ccc(F)cc2F)c(Cl)nc2ncnn12` (stereo not drawn) [Example 6]: 2.85; `CCC(C)Nc1c(-c2ccccc2)c(Cl)nc2ncnn12` (stereo not drawn) [Example 7]: 2.78. In turn, `CCC(C)Nc1c(-c2ccc(Cl)cc2Cl)c(Cl)nc2ncnn12` (stereo not drawn) [Example 8] gave a log p of 3.54. Take `CCC(C)Nc1c(-c2ccccc2Cl)c(Cl)nc2ncnn12` (stereo not drawn) [Example 9]: the log p was found to be 2.94. `CC(C)(C)CC(C)(C)Nc1c(-c2c(F)cc(F)cc2F)c(Cl)nc2ncnn12` [Example 10] registered a log p of 4.32. As for `CCC(C)CNc1c(-c2c(F)cc(F)cc2F)c(Cl)nc2ncnn12` (stereo not drawn) [Example 11], the log p is 3.26. The molecule `FCCCNc1c(-c2c(F)cc(F)cc2F)c(Cl)nc2ncnn12` [Example 12] showed a log p of 2.3. With `C=CCN(CC)c1c(-c2c(F)cc(C(F)(F)F)cc2Cl)c(Cl)nc2ncnn12` [Example 13] the figure was 4.06. With `C=CCN(C)c1c(-c2ccc(F)cc2F)c(Cl)nc2ncnn12` [Example 14] the figure was 2.89; with `C=CCN(CC)c1c(-c2ccc(F)cc2F)c(Cl)nc2ncnn12` [Example 15], 3.19.

In turn, `CC(C)(Nc1c(-c2c(F)c(F)c(F)c(F)c2F)c(Cl)nc2ncnn12)C(F)(F)F` [Example 17] had a log p of 3.75.

Consider `CCN(CC)c1c(-c2ccccc2F)c(Cl)nc2ncnn12` [Example 18], for which the log p amounted to 2.82.

As for `CCNc1c(-c2c(F)cc(C(F)(F)F)cc2Cl)c(Cl)nc2ncnn12` [Example 21], the log p is 3.1. The molecule `CCN(CC)c1c(-c2c(F)c(F)c(F)c(F)c2F)c(Cl)nc2ncnn12` [Example 22] had a log p of 3.44. Molecule `CCNc1c(-c2ccccc2F)c(Cl)nc2ncnn12` [Example 23] had a log p of 2.13. In turn, `CCNc1c(-c2c(F)cccc2F)c(Cl)nc2ncnn12` [Example 24] showed a log p of 2.14. In turn, `CCNc1c(-c2c(F)c(F)c(F)c(F)c2F)c(Cl)nc2ncnn12` [Example 25] registered a log p of 2.72. `CCN(CC)c1c(-c2c(F)cc(F)cc2F)c(Cl)nc2ncnn12` [Example 26] returned a log p of 3.05. Next, `CC(Nc1c(-c2c(F)cc(F)cc2F)c(Cl)nc2ncnn12)C(F)(F)F` (stereo not drawn) [Example 29]: 2.88; `CC(Nc1c(-c2c(F)cccc2Cl)c(Cl)nc2ncnn12)C(F)(F)F` (stereo not drawn) [Example 30]: 2.85. With `Cc1cc(C)c(-c2c(Cl)nc3ncnn3c2NC(C)C(F)(F)F)c(C)c1` (stereo not drawn) [Example 35] the figure was 3.55; with `C[C@H](Nc1c(-c2c(Cl)cc(C(F)(F)F)cc2Cl)c(Cl)nc2ncnn12)C(F)(F)F` [Example 36], 3.79. Molecule `C[C@H](Nc1c(-c2c(Cl)cc(OC(F)(F)F)cc2Cl)c(Cl)nc2ncnn12)C(F)(F)F` [Example 37] displayed a log p of 3.89. As for `CSc1cc(F)cc(F)c1-c1c(Cl)nc2ncnn2c1N[C@@H](C)C(F)(F)F` [Example 38], the log p amounted to 3.17.

With `C[C@H](Nc1c(-c2cc(C(F)(F)F)ccc2C(F)(F)F)c(Cl)nc2ncnn12)C(F)(F)F` [Example 39], the log p is 3.51. For `C[C@H](Nc1c(-c2cc(C(F)(F)F)ccc2Cl)c(Cl)nc2ncnn12)C(F)(F)F` [Example 40], the log p worked out at 3.4.

For `C[C@H](Nc1c(-c2c(F)cc(C(F)(F)F)c(F)c2F)c(Cl)nc2ncnn12)C(F)(F)F` [Example 41], the log p is listed as 3.6.

With `C[C@H](Nc1c(-c2ccc(C(F)(F)F)c(F)c2F)c(Cl)nc2ncnn12)C(F)(F)F` [Example 42], the log p is 3.52. The molecule `CC(Nc1c(-c2ccc(F)c(Cl)c2)c(Cl)nc2ncnn12)C(F)(F)F` (stereo not drawn) [Example 43] had a log p of 3.18. Next, `C[C@H](Nc1c(-c2c(Cl)c(F)cc(C(F)(F)F)c2Cl)c(Cl)nc2ncnn12)C(F)(F)F` [Example 44]: 3.74; `C[C@H](Nc1c(-c2ccc(C(F)(F)F)cc2F)c(Cl)nc2ncnn12)C(F)(F)F` [Example 45]: 3.33; `CC(Nc1c(-c2ccc(F)cc2Cl)c(Cl)nc2ncnn12)C(F)(F)F` (stereo not drawn) [Example 46]: 3.04. `CC(Nc1c(-c2c(F)cccc2F)c(Cl)nc2ncnn12)C(F)(F)F` (stereo not drawn) [Example 47] gave a log p of 2.64. With `CC(Nc1c(-c2c(F)c(F)c(F)c(F)c2F)c(Cl)nc2ncnn12)C(F)(F)F` (stereo not drawn) [Example 48], the log p was determined as 3.3. Next, `CC(Nc1c(-c2ccccc2F)c(Cl)nc2ncnn12)C(F)(F)F` (stereo not drawn) [Example 49]: 2.69; `C[C@H](Nc1c(-c2cc(SC(F)(F)F)ccc2Cl)c(Cl)nc2ncnn12)C(F)(F)F` [Example 50]: 3.78. In turn, `C[C@H](Nc1c(-c2cccc(C(F)(F)F)c2Cl)c(Cl)nc2ncnn12)C(F)(F)F` [Example 51] yielded a log p of 3.36. Molecule `C[C@H](Nc1c(-c2ccc(F)cc2F)c(Cl)nc2ncnn12)C(F)(F)F` [Example 52] displayed a log p of 2.81.

Take `C[C@H](Nc1c(-c2c(Cl)cccc2Cl)c(Cl)nc2ncnn12)C(F)(F)F` [Example 53]: the log p worked out at 3.02. Regarding `C[C@H](Nc1c(-c2c(F)cc(F)cc2C(F)(F)F)c(Cl)nc2ncnn12)C(F)(F)F` [Example 54], the log p was determined as 3.16. `C[C@H](Nc1c(-c2cccc3c2OC(F)(F)O3)c(Cl)nc2ncnn12)C(F)(F)F` [Example 55] gave a log p of 3.16. `CC(Nc1c(-c2c(F)cc(C(F)(F)F)cc2F)c(Cl)nc2ncnn12)C(F)(F)F` (stereo not drawn) [Example 56]: the log p came to 3.09. Next, `CC(Nc1c(-c2ccccc2Cl)c(Cl)nc2ncnn12)C(F)(F)F` (stereo not drawn) [Example 57]: 2.88; `C[C@H](Nc1c(-c2ccccc2Cl)c(Cl)nc2ncnn12)C(F)(F)F` [Example 58]: 2.87. Take `C[C@H](Nc1c(-c2ccc(F)cc2C(F)(F)F)c(Cl)nc2ncnn12)C(F)(F)F` [Example 59]: the log p was found to be 3.07. As for `C[C@@H](Nc1c(-c2c(F)cc(F)cc2F)c(Cl)nc2ncnn12)C(F)(F)F` [Example 60], the log p is on record as 2.84. In the case of `C[C@@H](Nc1c(-c2ccc(F)cc2Cl)c(Cl)nc2ncnn12)C(F)(F)F` [Example 61], the log p is reported as 3.

On to `C[C@H](Nc1c(-c2cc(F)ccc2F)c(Cl)nc2ncnn12)C(F)(F)F` [Example 62], for which the log p was determined as 2.74. Next, `CC(Nc1c(-c2c(Cl)cc(OC(F)(F)F)cc2Cl)c(Br)nc2ncnn12)C(F)(F)F` (stereo not drawn) [Example 65]: 3.92; `CC(Nc1c(-c2c(F)cc(F)cc2F)c(Br)nc2ncnn12)C(F)(F)F` (stereo not drawn) [Example 66]: 2.9; `CC(Nc1c(-c2c(F)cc(F)cc2F)c(Cl)nc2ncnn12)C(C)(C)C` (stereo not drawn) [Example 67]: 3.53. Molecule `C[C@H](Nc1c(-c2c(F)cc(F)cc2F)c(Cl)nc2ncnn12)C(C)(C)C` [Example 68] registered a log p of 3.54. For the molecule `CC(Nc1c(-c2c(F)cccc2Cl)c(Cl)nc2ncnn12)C(C)(C)C` (stereo not drawn) [Example 69], the log p was determined as 3.58. Consider `C[C@@H](Nc1c(-c2c(F)cccc2Cl)c(Cl)nc2ncnn12)C(C)(C)C` [Example 70], for which the log p amounted to 3.58. Next, `C[C@H](Nc1c(-c2c(F)cccc2Cl)c(Cl)nc2ncnn12)C(C)(C)C` [Example 71]: 3.63; `C[C@@H](Nc1c(-c2cc(F)ccc2F)c(Cl)nc2ncnn12)C(C)(C)C` [Example 72]: 3.38; `CC(C)C(C)Nc1c(-c2c(F)cc(F)cc2F)c(Cl)nc2ncnn12` (stereo not drawn) [Example 73]: 3.2. `CC(C)C(C)Nc1c(-c2ccccc2)c(Cl)nc2ncnn12` (stereo not drawn) [Example 74]: the log p was found to be 3.14. `CC(C)[C@H](C)Nc1c(-c2c(F)cc(F)cc2F)c(Cl)nc2ncnn12` [Example 77] showed a log p of 3.17.

In turn, `CC(C)[C@@H](C)Nc1c(-c2cc(F)ccc2F)c(Cl)nc2ncnn12` [Example 78] gave a log p of 3.05.

In the case of `Cc1nc2ncnn2c(N[C@H](C)C(C)C)c1-c1c(F)cccc1Cl` [Example 79], the log p is 2.7. Molecule `CC(C)CC(C)Nc1c(-c2c(F)cc(F)cc2F)c(Cl)nc2ncnn12` (stereo not drawn) [Example 80] showed a log p of 3.59.

For `CC(C)CC(C)Nc1c(-c2ccc(F)cc2F)c(Cl)nc2ncnn12` (stereo not drawn) [Example 81], the log p came out at 3.53. As for `CNc1c(-c2c(F)cccc2F)c(Cl)nc2ncnn12` [Example 82], the log p was 1.84.

Regarding `CNc1c(-c2c(F)cc(F)cc2F)c(Cl)nc2ncnn12` [Example 83], the log p came out at 2.01. For `CNc1c(-c2c(F)c(F)c(F)c(F)c2F)c(Cl)nc2ncnn12` [Example 84], the log p is listed as 2.41. The molecule `CN(C)c1c(-c2ccccc2F)c(Cl)nc2ncnn12` [Example 85] yielded a log p of 2.18. The molecule `CNc1c(-c2ccccc2F)c(Cl)nc2ncnn12` [Example 86] showed a log p of 1.86. `CN(C)c1c(-c2c(F)cccc2F)c(Cl)nc2ncnn12` [Example 87] showed a log p of 2.19.

For `C=C(C)CN(CC)c1c(-c2c(F)cc(F)cc2F)c(Cl)nc2ncnn12` [Example 90], the log p is on record as 3.6.

`C=C(C)CNc1c(-c2ccccc2F)c(Cl)nc2ncnn12` [Example 91] returned a log p of 2.48. `C=C(C)CN(CC)c1c(-c2ccc(F)cc2F)c(Cl)nc2ncnn12` [Example 93] came in with a log p of 3.54. `C=C(C)CNc1c(-c2c(F)cc(F)cc2F)c(Cl)nc2ncnn12` [Example 94]: the log p is 2.63.
